Measured values published in patent publication US12128035B2, “Activating pyruvate kinase R” (Novo Nordisk Health Care AG, priority 2021, dated 2024).
“And” between values parts separate entries of the source, which are not always exact repeats. Identical values can stand only once. “Also recorded” adds a separate entry of the source.

Columns and labels:
[1] = Phase 1: hematologic and hemolytic laboratory parameters in SCD patients; type: in vivo, human
Text: Laboratory changes relative to pretreatment for each pt in the MD cohort as of Jul. In 2 of 3 SCD MD-1 pts treated with Compound 1/placebo (currently blinded), Hb increased by >1 g/dL, % reticulocytes decreased, and markers of hemolysis were improved after 14 days of treatment (compared to pre-treatment levels). Hematologic parameters returned to pre-treatment levels 4 to 7 days post-treatment (data not shown) without clinical AEs.
A median 1.2 g/dL Hb increase (range 0, 2.3) and a median 60% reticulocyte decrease (range −39%, −81%) over baseline were observed. The onset of the increase in Hb was rapid and continued to increase in most patients through the end of treatment, indicating the potential for additional improvement with extended dosing. […] A median 36% LDH decrease (range +18%, −57%) and a median 35% bilirubin decrease (range −7%, −63%) over baseline were observed, which is consistent with the hypothesis that Compound 1 improves RBC survival and reduces RBC turnover.

[2] = system: H295R adreno-cortical carcinoma cell line; test: Cell viability (MTT Kit); type: cell-based
Procedure: To assess potential effects on steroidogenesis, Compound 1 was screened for steroid modulation in vitro using the H295R adreno-cortical carcinoma cell line (at 200 to 0.0002 μM) and in an assay to monitor cell viability (MTT Kit). Compound 1 indicated steroid modulation potential (% over vehicle) only at 200 μM, the top concentration tested, with 100% cellular viability at concentrations ≤20 μM (90% viability at 200 μM).

[3] = system: panels of receptors, enzymes, ion channels, and kinases; test: Preclinical safety: arrhythmia risk, mutagenicity, nonspecific binding panels; conditions: in vitro panels
aromatase = target: T1, aromatase (Homo sapiens, UniProt P11511); test: Aromatase inhibition; conditions: clinical trials and non-clinical testing
T1 construct: endogenous in cells; host or cells: H295R adreno-cortical carcinoma cells; healthy human subjects in vivo
T1 sequence (P11511 1-503): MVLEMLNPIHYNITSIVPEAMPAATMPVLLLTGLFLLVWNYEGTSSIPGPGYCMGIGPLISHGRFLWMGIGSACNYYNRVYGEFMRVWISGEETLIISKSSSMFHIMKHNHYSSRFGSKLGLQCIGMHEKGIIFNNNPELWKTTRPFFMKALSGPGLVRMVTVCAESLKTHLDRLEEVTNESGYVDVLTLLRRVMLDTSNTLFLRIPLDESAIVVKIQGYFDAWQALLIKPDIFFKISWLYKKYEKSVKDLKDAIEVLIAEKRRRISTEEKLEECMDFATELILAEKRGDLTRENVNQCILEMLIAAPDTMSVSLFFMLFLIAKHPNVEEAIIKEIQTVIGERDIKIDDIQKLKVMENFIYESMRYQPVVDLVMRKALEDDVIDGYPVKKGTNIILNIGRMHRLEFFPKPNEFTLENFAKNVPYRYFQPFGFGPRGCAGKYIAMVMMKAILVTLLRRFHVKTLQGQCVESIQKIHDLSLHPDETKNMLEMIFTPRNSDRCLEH
Text: Aromatase is an enzyme encoded by the CYP19A1 gene. It is located in the endoplasmic reticulum of estrogen-producing cells and catalyzes the rate-limiting step in the conversion of androgens to estrogens in many tissues. Aromatase is a cytochrome P-450 hemoprotein-containing enzyme complex that catalyzes the rate-limiting step in the production of estrogens, i.e. the conversion of androstenedione and testosterone, via three hydroxylation steps, to estrone and estradiol. Aromatase activity is present in many tissues, such as the ovaries, adipose tissue, muscle, liver, breast tissue, and in malignant breast tumors. The main sources of circulating estrogens are the ovaries in premenopausal women and adipose tissue in post-menopausal women. Aromatase catalyzes the conversion of androgens to estrone (E1), which is further converted to the potent estrogen estradiol (E2) by the enzyme 17β-HSD type 1 in the granulosa cell.
Aromatase is a key enzyme in the steroidogenic pathway that catalyzes the conversion of androgens, including testosterone, into estradiol. […]
Effects on circulating levels of estradiol and testosterone in male and female healthy subjects receiving Compound 1 or placebo for a treatment period of 14 days were evaluated. […] Testosterone and estradiol levels were assessed prior to dosing (baseline), and then on days 8, 14 and 17.

[4] = SCD MAD1, 300 mg once daily 14 days, of 7 patients

## O=C([C@H](CO)c1ccccc1)N1CC2=C(C1)CN(S(=O)(=O)c1cnc3c(c1)OCCO3)C2 (single isomer, unassigned) [Compound 1]
[1]; SCD MAD1, 300 mg once daily 14 days
  patients with >1 g/dL increase in hemoglobin: 6/7
[1]; SCD MAD1, 300 mg once daily 14 days (n = 7), range 0, 2.3
  median Hb increase over baseline: 1.2 g/dL
[1]; [4]
  patients with a decrease in reticulocytes: 7 and 7/7
  patients with a decrease in total bilirubin: 7
[1]; SCD MAD1, 300 mg once daily 14 days, range +18%, −57%
  median LDH decrease over baseline: 36%
[1]; SCD MAD1, 300 mg once daily 14 days, range −7%, −63%
  median bilirubin decrease over baseline: 35%
[1]; SCD MAD1, 300 mg once daily 14 days, range −39%, −81%
  median reticulocyte decrease over baseline: 60%
[1]; one SCD patient, 300 mg once daily, sustained through day 21, no hydroxyurea
  increase in Hb compared with pre-dose on day 1: > 2 g/dL
[2]; 200 μM
  cellular viability: 90%
[2]; concentrations ≤20 μM
  cellular viability: 100%
[3]
  preclinical evidence of arrhythmia risk, mutagenicity, nonspecific binding: has not demonstrated any preclinical evidence of arrhythmia risk, mutagenicity, or nonspecific binding activity
aromatase
  aromatase inhibition: has not shown evidence of inhibition of aromatase; also recorded: absence of aromatase inhibition
